The text below walks through data of PMC12598616, “Design and optimization of caspase-1-responsive fluorescent probes for pyroptosis imaging and anti-pyroptosis drug screening” (Chemical Science, 2025).

This assay has as its system activated Cas-1 in primary peritoneal macrophages. The assay is described as follows: High-content screening / fluorescence imaging for caspase-1 modulators in primary peritoneal macrophages. It counts as cell-based, mouse. Conditions: LPS then Nig 10 μM 2 h; FPy1 5 μM. The text has this:
The efficient and rapid discovery of Cas-1 modulators is of significant importance considering the therapeutic potential of Cas-1 in various diseases.[39,40] Therefore, we employed FPy1 to construct a high-content screening system aimed at identifying Cas-1 modulators. The level of activated Cas-1 in cells is influenced by multiple factors. To reduce the impact of factors that affect Cas-1 activation in cells, we utilized the NLRP3 inflammasome-mediated Cas-1 activation model, administering the drug during the second stage where the zymogen was converted into activated Cas-1. MCC950, a selective NLRP3 inflammasome inhibitor that could suppress Cas-1 activation, was selected as the positive drug.[41] […] To validate the efficacy of the Cas-1 modulator screening system (Fig. 6a), we first observed the fluorescence images of PMs stained with FPy1 (5 μM) in the control group, model group, and positive drug group. […] Subsequently, the impact of 25 natural products (10 μM) on activated Cas-1 were studied using high-content analysis (Fig. S20). […] To determine whether deoxyshikonin directly binds to Cas-1 and inhibits its activity, we conducted fluorescence detection following co-incubation of deoxyshikonin, FPy1 and Cas-1. […]
Harvested rat discs were fixed in 4 % buffered paraformaldehyde for 24 hours, decalcified in 10 % ethylenediaminetetraacetic acid (EDTA, Solarbio, E8030) solution for 1 month, embedded in paraffin, and sectioned at a thickness of 5 μm. […] Stained sections were evaluated by three independent raters, blinded to the research protocol, and measurements were averaged for statistical analysis. […]
In vivo fluorescence imaging of intervertebral disc degeneration
Twelve rats were modeled with needle puncture-induced intervertebral disc degeneration at the Co5/6, Co6/7 and Co 7/8 levels. […] In vivo fluorescence images were acquired using an in vivo Imaging System (PerkinElmer). […]
In vivo fluorescence imaging of osteoarthritis […]

In the case of “–FLTDG– [FPy1, RhoB donor, hNR quencher]”, the “fluorescence of FPy1-stained macrophages, model vs control group” value is “significant fluorescence enhancement compared to the control group”.
